# Reference: patent US8134015B2, “Compound inhibiting in vivo phosphorous transport and medicine containing the same” (Kyowa Hakko Kirin Co., Ltd., priority 2003, dated 2012)
# Where a name gives a salt, the structure may show the parent alone.
# Molecular target: T1, rat NaPi-2b (Rattus norvegicus, UniProt Q9JJ09)
# T1 construct: expressed in transfected cells; host or cells: Xenopus oocytes injected with cRNA
# T1 sequence (Q9JJ09 1-695): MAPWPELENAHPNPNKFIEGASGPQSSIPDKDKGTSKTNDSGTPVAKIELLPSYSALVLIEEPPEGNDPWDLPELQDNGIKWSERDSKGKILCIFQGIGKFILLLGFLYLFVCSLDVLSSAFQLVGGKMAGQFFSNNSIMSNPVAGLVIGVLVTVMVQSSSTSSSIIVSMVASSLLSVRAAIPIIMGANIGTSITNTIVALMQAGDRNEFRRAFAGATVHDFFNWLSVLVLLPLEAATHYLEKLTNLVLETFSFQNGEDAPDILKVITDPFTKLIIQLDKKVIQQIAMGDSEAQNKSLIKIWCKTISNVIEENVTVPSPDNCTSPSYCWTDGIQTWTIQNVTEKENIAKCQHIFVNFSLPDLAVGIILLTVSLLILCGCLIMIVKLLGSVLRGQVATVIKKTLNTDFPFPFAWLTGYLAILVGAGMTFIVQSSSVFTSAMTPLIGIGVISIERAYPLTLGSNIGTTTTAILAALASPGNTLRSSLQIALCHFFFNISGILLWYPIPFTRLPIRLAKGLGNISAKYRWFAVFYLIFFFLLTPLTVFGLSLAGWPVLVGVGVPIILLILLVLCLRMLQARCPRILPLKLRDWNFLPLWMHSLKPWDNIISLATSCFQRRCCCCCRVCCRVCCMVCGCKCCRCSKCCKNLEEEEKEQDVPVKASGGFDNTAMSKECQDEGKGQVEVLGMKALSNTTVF
# Experiment: Sodium-dependent phosphate uptake of Xenopus oocytes which expressed NaPi-2b (32P)
# Type: cell-based
# Settings: Xenopus oocytes expressing rat NaPi-2b, 32P radioactive phosphorus; read-out: IC50 (phosphate uptake inhibitory activity)
# In short: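 Read-out is 32P phosphate uptake into Xenopus oocytes expressing rat intestinal NaPi-2b (cRNA injection, 2-day culture). Inhibition at 300 μM and 100 μM was derived from a single inhibition curve and given as percent.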
row,IC50 [µM],Structure (SMILES)
1,2.87,"Cc1ccc(/C=N/NC(=O)c2cc(Br)ccc2NC(=O)c2ccc(CN3CCC(CO)CC3)cc2)cc1C [Compound 332, N-[4-Bromo-2-(3,4-dimethyl-benzylidene-hydrazinocarbonyl)-phenyl]-4-(4-hydroxymethyl-piperidin-1-ylmethyl)-benzamide]"
2,17.2,"Cc1ccc(/C=N/NC(=O)c2cc(Br)ccc2NC(=O)c2ccc(CN3CCC(CO)CC3)cc2)cc1 [Compound 333, N-[4-Bromo-2-(4-methyl-benzylidene-hydrazinocarbonyl)-phenyl]-4-(4-hydroxymethyl-piperidin-1-ylmethyl)-benzamide]"
3,7.69,"Cc1cccc(/C=N/NC(=O)c2cc(Br)ccc2NC(=O)c2ccc(CN3CCC(CO)CC3)cc2)c1 [Compound 334, N-[4-Bromo-2-(3-methyl-benzylidene-hydrazinocarbonyl)-phenyl]-4-(4-hydroxymethyl-piperidin-1-ylmethyl)-benzamide]"
4,5.86,"O=C(Nc1ccc(Br)cc1C(=O)N/N=C/c1ccc(F)cc1)c1ccc(CN2CCC(CO)CC2)cc1 [Compound 335, N-[4-Bromo-2-(4-fluoro-benzylidene-hydrazinocarbonyl)-phenyl]-4-(4-hydroxymethyl-piperidin-1-ylmethyl)-benzamide]"
5,16.6,"O=C(Nc1ccc(Br)cc1C(=O)N/N=C/c1cccc(F)c1)c1ccc(CN2CCC(CO)CC2)cc1 [Compound 336, N-[4-Bromo-2-(3-fluoro-benzylidene-hydrazinocarbonyl)-phenyl]-4-(4-hydroxymethyl-piperidin-1-ylmethyl)-benzamide]"
6,1.39,"O=C(Nc1ccc(Br)cc1C(=O)N/N=C/c1ccc(Cl)c(C(F)(F)F)c1)c1ccc(CN2CCC(CO)CC2)cc1 [Compound 337, N-[4-Bromo-2-(4-chloro-3-trifluoromethyl-benzylidene-hydrazinocarbonyl)-phenyl]-4-(4-hydroxymethyl-piperidin-1-ylmethyl)-benzamide]"
7,19,"COc1ccc(/C=N/NC(=O)c2cc(Br)ccc2NC(=O)c2ccc(CN3CCC(CO)CC3)cc2)cc1 [Compound 338, N-[4-Bromo-2-(4-methoxy-benzylidene-hydrazinocarbonyl)-phenyl]-4-(4-hydroxymethyl-piperidin-1-ylmethyl)-benzamide]"
8,12.8,"COc1cccc(/C=N/NC(=O)c2cc(Br)ccc2NC(=O)c2ccc(CN3CCC(CO)CC3)cc2)c1 [Compound 339, N-[4-Bromo-2-(3-methoxy-benzylidene-hydrazinocarbonyl)-phenyl]-4-(4-hydroxymethyl-piperidin-1-ylmethyl)-benzamide]"
9,8.41,"Cc1ccc(/C=N/NC(=O)c2cc(Br)ccc2NC(=O)c2ccc(CN3CCC(CCO)CC3)cc2)cc1C [Compound 340, N-[4-Bromo-2-(3,4-dimethyl-benzylidene-hydrazinocarbonyl)-phenyl]-4-[4-(2-hydroxy-ethyl)-piperidin-1-ylmethyl]-benzamide]"
10,< 3,"O=C(Nc1ccc(Br)cc1C(=O)N/N=C/c1cccc(F)c1)c1cccc(C[S+]([O-])c2nc[nH]n2)c1 (stereo not drawn) [Compound 341, N-[4-Bromo-2-(3-fluoro-benzylidene-hydrazinocarbonyl)-phenyl]-3-(1H-[1,2,4]triazole-3-sulfinylmethyl)-benzamide]"
11,32.6,"CCN(CC)CCN(C)Cc1cccc(C(=O)Nc2c(C)csc2C(=O)N/N=C/c2ccc(C)c(C)c2)c1 [Compound 342, 3-{[(2-Diethylamino-ethyl)-methyl-amino]-methyl}-N-[2-(3,4-dimethyl-benzylidene-hydrazinocarbonyl)-4-methyl-thiophen-3-yl]-benzamide]"
12,124,"CCN(CC)CCN(C)Cc1cccc(C(=O)Nc2c(C)csc2C(=O)N/N=C/c2ccc(C)cc2)c1 [Compound 343, 3-{[(2-Diethylamino-ethyl)-methyl-amino]-methyl}-N-[4-methyl-2-(4-methyl-benzylidene-hydrazinocarbonyl)-thiophen-3-yl]-benzamide]"
13,31,"CCN(CC)CCN(C)Cc1cccc(C(=O)Nc2c(C)csc2C(=O)N/N=C/c2ccc(Cl)c(C(F)(F)F)c2)c1 [Compound 344, N-[2-(4-Chloro-3-trifluoromethyl-benzylidene-hydrazinocarbonyl)-4-methyl-thiophen-3-yl]-3-{[(2-diethylamino-ethyl)-methyl-amino]-methyl}-benzamide]"
14,130,"Cc1ccc(/C=N/NC(=O)c2scc(C)c2NC(=O)c2cccc(CN3CCC(N4CCCCC4)CC3)c2)cc1C [Compound 345, 3-[1,4′]Bipiperidinyl-1′-ylmethyl-N-[2-(3,4-dimethyl-benzylidene-hydrazinocarbonyl)-4-methyl-thiophen-3-yl]-benzamide]"
15,4.46,"O=C(Nc1ccc(Br)cc1C(=O)N/N=C/C=C/c1ccccc1)c1cccnc1 [Compound 346, N-[4-Bromo-2-(3-phenyl-allylidene-hydrazinocarbonyl)-phenyl]-nicotinamide]"
16,4.91,"O=C(Nc1ccc(Br)cc1C(=O)N/N=C/C=C/c1ccccc1)c1ccncc1 [Compound 347, N-[4-Bromo-2-(3-phenyl-allylidene-hydrazinocarbonyl)-phenyl]-isonicotinamide]"
17,16.6,"O=C(Nc1ccc(Cl)cc1C(=O)N/N=C/C=C/c1ccccc1)c1cccnc1 [Compound 348, N-[4-Chloro-2-(3-phenyl-allylidene-hydrazinocarbonyl)-phenyl]-nicotinamide]"
18,8.78,"O=C(Nc1ccc(Cl)cc1C(=O)N/N=C/C=C/c1ccccc1)c1ccncc1 [Compound 349, N-[4-Chloro-2-(3-phenyl-allylidene-hydrazinocarbonyl)-phenyl]-isonicotinamide]"
19,25.3,"O=C(Nc1ccc(Br)cc1C(=O)N/N=C/c1cccc(OCCO)c1)c1ccncc1 [Compound 350, N-{4-Bromo-2-[3-(2-hydroxy-ethoxy)-benzylidene-hydrazinocarbonyl]-phenyl}-isonicotinamide]"
20,8.96,"O=C(Nc1ccc(Cl)cc1C(=O)N/N=C/c1cccc(OCCO)c1)c1ccncc1 [Compound 351, N-{4-Chloro-2-[3-(2-hydroxy-ethoxy)-benzylidene-hydrazinocarbonyl]-phenyl}-isonicotinamide]"
21,13,"COc1ccccc1/C=C/C=N/NC(=O)c1cc(Br)ccc1NC(=O)c1cccnc1 [Compound 352, N-{4-Bromo-2-[3-(2-methoxy-phenyl)-allylidene-hydrazinocarbonyl]-phenyl}-nicotinamide]"
22,8.85,"COc1ccccc1/C=C/C=N/NC(=O)c1cc(Br)ccc1NC(=O)c1ccncc1 [Compound 353, N-{4-Bromo-2-[3-(2-methoxy-phenyl)-allylidene-hydrazinocarbonyl]-phenyl}-isonicotinamide]"
23,1.54,"COc1ccccc1/C=C/C=N/NC(=O)c1cc(Cl)ccc1NC(=O)c1cccnc1 [Compound 354, N-{4-Chloro-2-[3-(2-methoxy-phenyl)-allylidene-hydrazinocarbonyl]-phenyl}-nicotinamide]"
24,0.17,"Cc1ccc(/C=N/NC(=O)c2cc(Br)ccc2NC(=O)c2ccccn2)cc1 [Compound 356, Pyridin-2-carboxylic acid [4-bromo-2-(4-methyl-benzylidene-hydrazinocarbonyl)-phenyl]-amide hydrochloride]"
